Laboratory results from patent publication US11944612B2, “Dosing regimens for 2-hydroxy-6-((2-(1-isopropyl-1H-pyrazol-5-yl)pyridin-3-yl)methoxy)benzaldehyde” (Global Blood Therapeutics, Inc., priority 2015, dated 2024).

Experiments:
[1] = Phase I study: whole blood and plasma pharmacokinetics of GBT440 (LC-MS-MS); assay type: in vivo, human; settings: for half-life: human, whole blood, oral
Protocol: (§1) The following example presents a Phase I randomised, placebo-controlled, double-blind, single and multiple ascending dose study of the tolerability and pharmacokinetics of Compound 1 (GBT440) in healthy subjects and patients with Sickle Cell Disease.
(§2) Experimental: GBT440 • Subjects randomized 6:2 to receive daily oral dosing of GBT440 or placebo for 1 day (single dose) and up to 28 days (multiple dose)
Analysis of whole blood was performed as follows. 50 μL of diluted whole blood was mixed with 20 μL of GBT1592 (GBT440-D7) solution in acetonitrile. 0.3 mL of 0.1M citrate buffer solution (pH 3) was added to the sample, and the sample mixed briefly by vortexing, followed by sonication for 10 minutes. 2.0 mL methyl tert butyl ether (MTBE) was added to the sample, and the sample was capped, and mixed thoroughly by vortexing at high speed for 20 minutes. The sample was then centrifuged at 3300 rpm at room temperature for 10 minutes. 0.2 mL of the clear organic layer of the centrifuged sample was then transferred to a clean 96-well 2-mL plate, and the solvent was evaporated to dryness. […] The resultant reconstituted extract was analyzed by liquid chromatography mass spectrometry (LCMS).
For the LCMS, a Sciex API 4000 LC-MS-MS was equipped with an HPLC column. The peak area of the m/z 338.1→158.1 GBT440 product ion was measured against the peak area of the m/z 345.2→159.1 GBT1592 (GBT440-D7) internal standard product ion.
The whole blood samples, obtained as described above, were analyzed for pharmacokinetic parameters and RBC:Plasma ratios, as follows.
Terminal half-life and other pharmacokinetic parameters were calculated using Phoenix WinNonlin software. Apparent terminal half-life (t1/2) values were calculated as ln(2)/k, where k is the terminal elimination rate constant which is obtained by performing a linear regression on the terminal phase of a plot of the natural logarithm (ln) of concentration versus time.
RBC:Plasma ratio was calculated using the equation below. […]

[2] = tested on: sickle cells; test: Irreversibly sickled cells counted in peripheral blood smears; assay type: in vivo, human
Text: To quantify irreversibly sickled cells (ISCs), six different fields were randomly selected and imaged at 40× magnification per slide. Each field contained 100 to 300 cells and >500 cells (in 3 or more fields) were counted per blood smear slide. Cells that were classically sickled shape or appeared linear (with length equal to or more than 3× the width) with irregular or pointed edges were counted as sickled. Elliptical red blood cells (also appearing linear but with length approximately twice the width) with smooth rounded edges were counted as normal. In general, isolated non-discoid cells with spiky turns were counted as sickled.
Morphological criteria for sickle cells included the following categories: (1) non-discoid irregular shaped cells with irregular or pointed edges; (2) elliptocytes with length more than twice the width and with irregular or pointed edges; and (3) irregular shaped elliptocytes.

[3] = Phase I study: hemolysis measures / response parameters in subjects with SCD; assay type: in vivo, human
Text: as §1
Other Outcome Measures: • Percentage of sickled cells under ex vivo conditions [Time Frame: 30 days] • Effect of GBT440 on hemolysis as measured by LDH, direct bilirubin, hemoglobin, and reticulocyte count [Time Frame: 30 days] • Change from baseline in pain as measured by visual analog scale [Time Frame: 30 days] • Change from baseline in fatigue as measured by questionnaire [Time Frame: 30 days] • Exercise capacity as measured by 6-minute walk test [Time Frame: 30 days]
as §2
Inclusion Criteria: • Healthy male or female of non-child bearing potential; 18 to 55 years old; are non-smokers and have not used nicotine products within 3 months prior to screening. • Male or female, 18 to 60 years old, with sickle cell disease (hemoglobin SS) not requiring chronic blood transfusion therapy; without hospitalization in 30 days before screening or receiving blood transfusion within 30 days before screening; subjects are allowed concomitant use of hydroxyurea if the dose has been stable for the 3 months prior to screening. […]

[4] = biological target: T1, hemoglobin (Homo sapiens, UniProt P68871+P69905, E7V); test: Whole blood hemoximetry (oxygen equilibrium curves, % Hb modification); assay type: in vivo; settings: 500 mg
T1 construct: from tissue; host or cells: whole blood (red blood cells) of study subjects
Protocol: Whole blood hemoximetry was used to measure oxygen equilibration. Blood from healthy volunteers and sickle cell disease (SCD) patients was drawn into 1.8 mL sodium citrate tubes. These samples were stored overnight at 4° C. prior to hemoximetry measurements. Based upon the hematocrit of the blood, either 50 μL or 100 μL of blood was diluted into 5 mL of 37° C. TES buffer (30 mM TES, 130 mM NaCl, 5 mM KCl, pH 7.4 at 25° C.). Diluted sample were loaded into TCS Hemox Analyzer cuvettes and oxygenated for twenty minutes using compressed air. After oxygenation, the samples were deoxygenated using nitrogen gas until the pO2 reached 1.6 millimeters of mercury (mm Hg). Data during this deoxygenation step was collected into Oxygen Equilibrium Curve (OEC) files using the TCS Hemox Analytical Software (HAS). OEC files were then analyzed to obtain the p50 (the partial pressure of oxygen at which 50% of hemoglobin in a sample is saturated with O2) and the p20 (the partial pressure of oxygen at which 20% of hemoglobin in a sample is saturated with O2). Delta p20 values (p20predose−p20sample time) were then used to calculate the % Hb Modification.

[5] = biological target: hemoglobin (Homo sapiens, UniProt P68871+P69905); settings: in vitro and in vivo; cited from earlier work
[6] = 500 mg (Cohort 12), n = 10, subjects with SCD
[7] = 700 mg (Cohort 11), n = 12, subjects with SCD
[8] = 1000 mg (500 mg twice daily, Cohort 14), n = 5, subjects with SCD

Structure (SMILES): CC(C)n1nccc1-c1ncccc1COc1cccc(O)c1C=O [Compound 1, 2-hydroxy-6-((2-(1-isopropyl-1h-pyrazol-5-yl)pyridin-3-yl)methoxy)benzaldehyde]
- half-life ([1]; SCD subjects): ~1.6 days
- half-life ([1]; healthy subjects): ~3 days
- increase in GBT440 with dose ([1]; single and multiple dosing): dose proportional increase
- Irreversibly sickled cells, change from baseline to Day 28, median [2, 6]: −56.4%
- percent sickle cells over time ([2]; 500 mg, 700 mg vs placebo, 28 day dosing period (FIG. 6)): reduced sickle cells in the peripheral blood
- Irreversibly sickled cells, change from baseline to Day 28, median [2, 7]: −45.9%
- Irreversibly sickled cells, change from baseline to Day 28, median [2, 8]: −45.7%
- sickle cells in peripheral blood smears ([2]; subject treated with 700 mg, day 1 vs day 28 (FIGS. 7A-7B)): marked reduction in sickle cells
- Hemoglobin, change from baseline to Day 28, median [3, 6]: 0.4 g/dL
- Lactate dehydrogenase, change from baseline to Day 28, median [3, 6]: −19.8%
- Reticulocytes, change from baseline to Day 28, median [3, 6]: −31.2%
- Unconjugated bilirubin, change from baseline to Day 28, median [3, 6]: −30.6%
- change in hemoglobin over time ([3]; 500 mg, 700 mg vs placebo (FIG. 4)): rapid and progressive rise in hemoglobin levels
- percent change in reticulocytes over time ([3]; 500 mg, 700 mg vs placebo (FIG. 5)): profound decline in reticulocytes
- Hemoglobin, change from baseline to Day 28, median [3, 7]: 0.7 g/dL
- Lactate dehydrogenase, change from baseline to Day 28, median [3, 7]: −11.9%
- Reticulocytes, change from baseline to Day 28, median [3, 7]: −37.0%
- Unconjugated bilirubin, change from baseline to Day 28, median [3, 7]: −42.6%
- hemoglobin response, higher dose level compared to lower ([3]; 700 mg compared to 500 mg (FIG. 4)): trend for a better response
- Hemoglobin, change from baseline to Day 28, median [3, 8]: 0.0 g/dL
- Lactate dehydrogenase, change from baseline to Day 28, median [3, 8]: −12.4%
- Reticulocytes, change from baseline to Day 28, median [3, 8]: −49.9%
- Unconjugated bilirubin, change from baseline to Day 28, median [3, 8]: −56.3%
- reticulocyte counts versus exposure ([3]; higher GBT440 exposures, day 28 (FIG. 8)): more profound reduction in reticulocyte counts
- hematologic response by Hb occupancy ([3]; participants who achieved >20% Hb occupancy compared to those who did not): improved hematologic response
- hemoglobin modification ([4]; 700 mg (FIG. 3)): proportional to dose
- shift of the oxygen equilibrium curve ([4]; 700 mg vs placebo, SCD subjects (FIG. 3)): left shift of the oxygen equilibrium curve

Structure (SMILES): O=Cc1ccc(CO)o1 [Compound 5HMF, 5-hydroxymethyl-2-furfuraldehyde]
- hemoglobin modulation [5]: potent hemoglobin modulator both in vitro and in vivo
